Results as given in ChEMBL document CHEMBL3862033 (J Med Chem, 2016).

The compounds below were run against 5-hydroxytryptamine receptor 6 (Homo sapiens) (UniProt P50406) (assay: Displacement of [3H]LSD from human 5-HT6 receptor expressed in HEK cell membranes at 10 uM incubated for 90 mins under dark condition by microbeta scintillation counting method relative to control). Details: HEK293.
Chain of 5-hydroxytryptamine receptor 6 (Homo sapiens) (P50406 whole entry): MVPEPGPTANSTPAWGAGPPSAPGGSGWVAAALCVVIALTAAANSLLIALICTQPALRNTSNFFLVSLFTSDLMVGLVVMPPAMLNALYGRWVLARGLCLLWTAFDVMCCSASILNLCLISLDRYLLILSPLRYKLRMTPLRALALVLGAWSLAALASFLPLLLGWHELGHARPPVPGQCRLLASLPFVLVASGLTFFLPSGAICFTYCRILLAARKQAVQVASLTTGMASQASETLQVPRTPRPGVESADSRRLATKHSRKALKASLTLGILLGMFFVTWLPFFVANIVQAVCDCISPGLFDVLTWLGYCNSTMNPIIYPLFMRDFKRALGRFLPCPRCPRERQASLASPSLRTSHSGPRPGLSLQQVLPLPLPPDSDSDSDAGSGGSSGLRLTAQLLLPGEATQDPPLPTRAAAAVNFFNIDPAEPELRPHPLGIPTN

| Structure (SMILES) | inhibition [%] |
| --- | --- |
| CNC(=O)[C@@]12C[C@@H]1[C@@H](n1cnc3c(N(C)C)nc(Cl)nc31)[C@H](O)[C@@H]2O | < 50 |

Each compound was assayed against T1, Adenosine receptor A1 (Homo sapiens) (UniProt P30542) (assay: Displacement of [3H]N6-phenylisopropyladenosine from recombinant human A1AR expressed in CHO cell membranes at 10 uM after 60 mins by liquid scintillation counting method relative to control). Details: not given.
T1 sequence (whole entry): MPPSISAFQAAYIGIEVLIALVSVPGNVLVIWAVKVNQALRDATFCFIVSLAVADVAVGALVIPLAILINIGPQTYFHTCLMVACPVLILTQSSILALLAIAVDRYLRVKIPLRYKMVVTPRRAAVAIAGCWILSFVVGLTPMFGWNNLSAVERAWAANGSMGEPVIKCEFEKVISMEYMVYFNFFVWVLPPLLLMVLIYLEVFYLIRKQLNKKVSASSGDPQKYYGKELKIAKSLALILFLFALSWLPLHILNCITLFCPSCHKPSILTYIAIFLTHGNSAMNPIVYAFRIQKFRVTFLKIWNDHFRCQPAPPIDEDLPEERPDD

| Structure (SMILES) | inhibition [%] |
| --- | --- |
| CNC(=O)[C@@]12C[C@@H]1[C@@H](n1cnc3c(N(C)C)nc(Cl)nc31)[C@H](O)[C@@H]2O | 26 |

Each compound was assayed against 5-hydroxytryptamine receptor 1D (Homo sapiens) (UniProt P28221) (assay: Displacement of [3H]5-CT from human 5-HT1D receptor expressed in HEK-T cell membranes at 10 uM incubated for 90 mins under dark condition by microbeta scintillation counting method relative to control). Details: not given.
Chain of 5-hydroxytryptamine receptor 1D (Homo sapiens) (P28221 whole entry): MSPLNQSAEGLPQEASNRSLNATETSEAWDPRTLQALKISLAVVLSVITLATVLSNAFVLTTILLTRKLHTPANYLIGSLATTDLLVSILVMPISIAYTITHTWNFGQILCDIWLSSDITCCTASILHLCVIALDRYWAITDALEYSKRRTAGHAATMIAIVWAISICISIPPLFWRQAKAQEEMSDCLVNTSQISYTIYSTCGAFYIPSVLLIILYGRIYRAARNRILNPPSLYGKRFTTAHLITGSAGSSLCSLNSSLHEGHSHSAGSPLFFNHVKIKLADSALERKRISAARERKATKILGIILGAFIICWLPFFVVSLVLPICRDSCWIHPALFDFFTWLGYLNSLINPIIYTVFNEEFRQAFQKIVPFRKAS

| Structure (SMILES) | inhibition [%] |
| --- | --- |
| CNC(=O)[C@@]12C[C@@H]1[C@@H](n1cnc3c(N(C)C)nc(Cl)nc31)[C@H](O)[C@@H]2O | < 50 |

The compounds below were run against T2, 5-hydroxytryptamine receptor 2B (Homo sapiens, UniProt P41595) (assay: not given). Details: HEK293, at 10 µM.
T2 sequence (P41595 whole entry): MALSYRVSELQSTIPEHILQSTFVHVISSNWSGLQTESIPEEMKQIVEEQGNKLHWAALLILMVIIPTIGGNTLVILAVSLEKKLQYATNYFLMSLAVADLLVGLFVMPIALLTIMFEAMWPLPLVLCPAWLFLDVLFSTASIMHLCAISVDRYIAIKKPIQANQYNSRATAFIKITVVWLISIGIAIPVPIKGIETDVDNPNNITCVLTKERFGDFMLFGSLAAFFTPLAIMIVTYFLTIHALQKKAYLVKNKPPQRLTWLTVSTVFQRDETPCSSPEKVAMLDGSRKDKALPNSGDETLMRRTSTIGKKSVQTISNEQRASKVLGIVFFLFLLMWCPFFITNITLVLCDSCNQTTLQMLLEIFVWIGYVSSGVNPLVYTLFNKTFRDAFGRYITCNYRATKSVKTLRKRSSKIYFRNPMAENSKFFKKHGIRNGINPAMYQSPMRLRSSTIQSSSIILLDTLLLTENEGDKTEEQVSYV

| Structure (SMILES) | inhibition [%] |
| --- | --- |
| CNC(=O)[C@@]12C[C@@H]1[C@@H](n1cnc3c(N(C)C)nc(Cl)nc31)[C@H](O)[C@@H]2O | > 50 |

What follows are compounds tested against 5-hydroxytryptamine receptor 5A (Homo sapiens) (UniProt P47898) (assay: Displacement of [3H]LSD from human 5-HT5A receptor expressed in Flp-In-CHO cell membranes incubated for 90 mins under dark condition by microbeta scintillation counting method relative to control). Details: not given.
Parameters: concentration or dose not given beside the values

Chain of 5-hydroxytryptamine receptor 5A (Homo sapiens) (P47898 whole entry): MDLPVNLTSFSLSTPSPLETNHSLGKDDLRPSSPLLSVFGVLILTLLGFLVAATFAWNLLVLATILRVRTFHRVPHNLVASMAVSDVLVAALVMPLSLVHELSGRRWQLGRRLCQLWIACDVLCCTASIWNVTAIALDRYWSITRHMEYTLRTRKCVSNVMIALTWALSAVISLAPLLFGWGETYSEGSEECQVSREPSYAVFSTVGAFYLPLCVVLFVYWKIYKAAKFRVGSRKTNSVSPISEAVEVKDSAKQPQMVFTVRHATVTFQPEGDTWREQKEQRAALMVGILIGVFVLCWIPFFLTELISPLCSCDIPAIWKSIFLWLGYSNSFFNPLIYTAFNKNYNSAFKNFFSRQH

| Structure (SMILES) | inhibition [%] |
| --- | --- |
| CNC(=O)[C@@]12C[C@@H]1[C@@H](n1cnc3c(N(C)C)nc(Cl)nc31)[C@H](O)[C@@H]2O | < 50 |

These compounds were tested against T2, 5-hydroxytryptamine receptor 2B (assay: biochemical). Details: not given.
Assay type: cell-based, HEK293

| Structure (SMILES) | Ki [µM] |
| --- | --- |
| CNC(=O)[C@@]12C[C@@H]1[C@@H](n1cnc3c(N(C)C)nc(Cl)nc31)[C@H](O)[C@@H]2O | 2.1 |

These compounds were tested against T3, 5-hydroxytryptamine receptor 2A (Homo sapiens, UniProt P28223) (assay: Displacement of [3H]ketanserin from human 5-HT2A receptor expressed in HEK-T cell membranes at 10 uM incubated for 90 mins under dark condition by microbeta scintillation counting method relative to control). Details: not given.
T3 sequence (P28223 whole entry): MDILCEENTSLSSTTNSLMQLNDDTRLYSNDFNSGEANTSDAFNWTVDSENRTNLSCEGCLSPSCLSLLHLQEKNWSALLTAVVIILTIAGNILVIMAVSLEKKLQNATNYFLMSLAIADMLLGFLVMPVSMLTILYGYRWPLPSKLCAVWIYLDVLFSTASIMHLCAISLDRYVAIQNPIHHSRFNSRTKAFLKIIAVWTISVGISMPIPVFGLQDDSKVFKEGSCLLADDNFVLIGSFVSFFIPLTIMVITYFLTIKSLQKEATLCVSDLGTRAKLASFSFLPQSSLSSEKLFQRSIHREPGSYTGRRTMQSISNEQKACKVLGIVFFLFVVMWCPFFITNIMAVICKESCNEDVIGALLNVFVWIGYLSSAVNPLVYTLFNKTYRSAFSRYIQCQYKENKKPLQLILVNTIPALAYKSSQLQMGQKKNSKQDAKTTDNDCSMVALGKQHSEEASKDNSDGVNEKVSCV

| Structure (SMILES) | inhibition [%] |
| --- | --- |
| CNC(=O)[C@@]12C[C@@H]1[C@@H](n1cnc3c(N(C)C)nc(Cl)nc31)[C@H](O)[C@@H]2O | < 10 |

What follows are compounds tested against T3, 5-hydroxytryptamine receptor 2A (assay: Displacement of [3H]ketanserin from human 5-HT2A receptor expressed in HEK-T cell membranes incubated for 90 mins under dark condition by microbeta scintillation counting method). Details: not given.

| Structure (SMILES) | Ki [µM] |
| --- | --- |
| CNC(=O)[C@@]12C[C@@H]1[C@@H](n1cnc3c(N(C)C)nc(Cl)nc31)[C@H](O)[C@@H]2O | > 10 |

Each compound was assayed against 5-hydroxytryptamine receptor 1B (Homo sapiens) (UniProt P28222) (assay: Displacement of [3H]5-CT from human 5-HT1BR expressed in HEK cell membranes at 10 uM incubated for 90 mins under dark condition by microbeta scintillation counting method relative to control). Details: HEK293.
Chain of 5-hydroxytryptamine receptor 1B (Homo sapiens) (P28222 whole entry): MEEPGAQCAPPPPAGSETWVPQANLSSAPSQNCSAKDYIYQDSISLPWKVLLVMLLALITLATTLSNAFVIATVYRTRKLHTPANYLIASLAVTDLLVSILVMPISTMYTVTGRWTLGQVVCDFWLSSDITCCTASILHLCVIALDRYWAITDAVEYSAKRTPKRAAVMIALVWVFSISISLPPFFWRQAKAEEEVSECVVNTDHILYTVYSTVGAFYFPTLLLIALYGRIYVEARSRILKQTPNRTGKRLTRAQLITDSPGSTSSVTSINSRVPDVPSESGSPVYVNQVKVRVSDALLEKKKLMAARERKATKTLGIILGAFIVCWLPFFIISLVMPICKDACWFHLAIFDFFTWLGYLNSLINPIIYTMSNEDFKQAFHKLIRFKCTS

| Structure (SMILES) | inhibition [%] |
| --- | --- |
| CNC(=O)[C@@]12C[C@@H]1[C@@H](n1cnc3c(N(C)C)nc(Cl)nc31)[C@H](O)[C@@H]2O | < 50 |

What follows are compounds tested against 5-hydroxytryptamine receptor 1E (Homo sapiens) (UniProt P28566) (assay: Displacement of [3H]5-HT from human 5-HT1E receptor expressed in HEK cell membranes at 10 uM incubated for 90 mins under dark condition by microbeta scintillation counting method relative to control). Details: HEK293.
Chain of 5-hydroxytryptamine receptor 1E (Homo sapiens) (P28566 whole entry): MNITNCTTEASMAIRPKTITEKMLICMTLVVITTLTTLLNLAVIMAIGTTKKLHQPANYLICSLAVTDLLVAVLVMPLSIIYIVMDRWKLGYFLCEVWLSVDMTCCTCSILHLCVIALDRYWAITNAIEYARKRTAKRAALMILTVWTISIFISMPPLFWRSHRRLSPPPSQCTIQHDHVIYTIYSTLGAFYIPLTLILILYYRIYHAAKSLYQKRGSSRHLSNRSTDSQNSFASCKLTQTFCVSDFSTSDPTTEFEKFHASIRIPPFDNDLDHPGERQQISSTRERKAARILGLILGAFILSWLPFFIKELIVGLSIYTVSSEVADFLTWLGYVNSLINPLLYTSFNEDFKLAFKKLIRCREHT

| Structure (SMILES) | inhibition [%] |
| --- | --- |
| CNC(=O)[C@@]12C[C@@H]1[C@@H](n1cnc3c(N(C)C)nc(Cl)nc31)[C@H](O)[C@@H]2O | < 50 |

These compounds were tested against 5-hydroxytryptamine receptor 7 (Homo sapiens) (UniProt P34969) (assay: Displacement of [3H]LSD from human 5-HT7A receptor expressed in HEK cell membranes at 10 uM incubated for 90 mins under dark condition by microbeta scintillation counting method relative to control). Details: HEK293.
Chain of 5-hydroxytryptamine receptor 7 (Homo sapiens) (P34969 whole entry): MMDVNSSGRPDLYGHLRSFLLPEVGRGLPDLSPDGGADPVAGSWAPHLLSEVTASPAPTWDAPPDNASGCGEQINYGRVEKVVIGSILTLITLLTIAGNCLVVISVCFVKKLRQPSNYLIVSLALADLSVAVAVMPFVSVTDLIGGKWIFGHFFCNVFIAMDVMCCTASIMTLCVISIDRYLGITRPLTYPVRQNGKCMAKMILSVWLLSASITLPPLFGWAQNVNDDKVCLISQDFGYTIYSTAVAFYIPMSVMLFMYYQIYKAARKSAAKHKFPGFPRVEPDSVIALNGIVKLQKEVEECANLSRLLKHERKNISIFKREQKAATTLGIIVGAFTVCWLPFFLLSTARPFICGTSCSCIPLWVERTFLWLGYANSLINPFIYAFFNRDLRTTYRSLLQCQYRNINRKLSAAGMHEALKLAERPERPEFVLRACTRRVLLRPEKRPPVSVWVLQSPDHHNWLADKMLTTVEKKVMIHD

| Structure (SMILES) | inhibition [%] |
| --- | --- |
| CNC(=O)[C@@]12C[C@@H]1[C@@H](n1cnc3c(N(C)C)nc(Cl)nc31)[C@H](O)[C@@H]2O | < 50 |

What follows are compounds tested against T4, 5-hydroxytryptamine receptor 2C (Homo sapiens) (UniProt P28335) (assay: Displacement of [3H]mesulergine from human 5-HT2CR expressed in Flp-In HEK cell membranes at 10 uM incubated for 90 mins under dark condition by microbeta scintillation counting method relative to control). Details: HEK293.
T4 sequence (whole entry): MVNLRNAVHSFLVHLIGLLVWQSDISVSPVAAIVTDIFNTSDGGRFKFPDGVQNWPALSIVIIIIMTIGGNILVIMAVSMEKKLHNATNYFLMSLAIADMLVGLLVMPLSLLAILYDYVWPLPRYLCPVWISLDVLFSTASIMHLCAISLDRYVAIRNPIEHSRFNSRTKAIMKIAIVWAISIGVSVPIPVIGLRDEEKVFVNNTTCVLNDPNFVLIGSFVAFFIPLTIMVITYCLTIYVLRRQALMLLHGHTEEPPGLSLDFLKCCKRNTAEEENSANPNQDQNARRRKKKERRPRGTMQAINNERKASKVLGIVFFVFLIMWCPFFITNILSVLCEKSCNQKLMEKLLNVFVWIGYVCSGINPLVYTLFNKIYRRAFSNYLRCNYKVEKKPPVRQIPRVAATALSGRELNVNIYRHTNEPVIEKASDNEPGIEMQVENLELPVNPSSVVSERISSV

| Structure (SMILES) | inhibition [%] |
| --- | --- |
| CNC(=O)[C@@]12C[C@@H]1[C@@H](n1cnc3c(N(C)C)nc(Cl)nc31)[C@H](O)[C@@H]2O | > 50 |

The compounds below were run against T5, 5-hydroxytryptamine receptor 3A (Homo sapiens) (UniProt P46098) (assay: Displacement of [3H]GR65630 from human 5-HT3 receptor expressed in HEK-T cell membranes at 10 uM incubated for 90 mins under dark condition by microbeta scintillation counting method relative to control). Details: not given.
T5 sequence (whole entry): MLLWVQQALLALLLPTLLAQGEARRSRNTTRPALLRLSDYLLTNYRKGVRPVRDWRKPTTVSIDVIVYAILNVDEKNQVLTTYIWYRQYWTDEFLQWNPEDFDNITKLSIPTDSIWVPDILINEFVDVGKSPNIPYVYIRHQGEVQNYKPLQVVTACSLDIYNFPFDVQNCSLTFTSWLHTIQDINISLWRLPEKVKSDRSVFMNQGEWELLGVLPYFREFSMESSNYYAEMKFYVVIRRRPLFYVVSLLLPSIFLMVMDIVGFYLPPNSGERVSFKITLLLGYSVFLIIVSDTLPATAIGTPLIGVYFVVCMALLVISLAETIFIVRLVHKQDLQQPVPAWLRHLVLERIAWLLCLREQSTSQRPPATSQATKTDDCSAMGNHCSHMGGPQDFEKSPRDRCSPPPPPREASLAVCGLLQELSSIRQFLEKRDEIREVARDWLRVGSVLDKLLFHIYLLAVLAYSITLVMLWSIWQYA

| Structure (SMILES) | inhibition [%] |
| --- | --- |
| CNC(=O)[C@@]12C[C@@H]1[C@@H](n1cnc3c(N(C)C)nc(Cl)nc31)[C@H](O)[C@@H]2O | < 50 |

What follows are compounds tested against T6, Adenosine receptor A3 (Homo sapiens, UniProt P0DMS8) (assay: Displacement of [125l]N 6-(4-amino-3-iodobenzyl)adenosine-5'-N-methyluronamide from recombinant human A3AR expressed in CHO cell membranes after 60 mins by gamma counting method). Details: not given.
T6 sequence (P0DMS8 whole entry): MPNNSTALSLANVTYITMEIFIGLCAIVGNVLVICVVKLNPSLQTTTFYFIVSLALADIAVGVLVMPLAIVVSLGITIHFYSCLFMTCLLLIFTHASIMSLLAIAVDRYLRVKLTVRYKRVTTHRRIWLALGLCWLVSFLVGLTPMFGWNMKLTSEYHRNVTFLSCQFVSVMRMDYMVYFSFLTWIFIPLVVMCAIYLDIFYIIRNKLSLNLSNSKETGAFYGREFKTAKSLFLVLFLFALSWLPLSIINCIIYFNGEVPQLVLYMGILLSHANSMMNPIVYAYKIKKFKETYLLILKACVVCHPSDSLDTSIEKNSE

| Structure (SMILES) | Ki [µM] |
| --- | --- |
| CNC(=O)[C@@]12C[C@@H]1[C@@H](n1cnc3c(N(C)C)nc(Cl)nc31)[C@H](O)[C@@H]2O | 1.48 |

These compounds were tested against T7, 5-hydroxytryptamine receptor 1A (Homo sapiens) (UniProt P08908) (assay: Displacement of [3H]WAY100635 from human 5-HT1AR expressed in CHO cell membranes at 10 uM incubated for 90 mins under dark condition by microbeta scintillation counting method relative to control). Details: not given.
T7 sequence (whole entry): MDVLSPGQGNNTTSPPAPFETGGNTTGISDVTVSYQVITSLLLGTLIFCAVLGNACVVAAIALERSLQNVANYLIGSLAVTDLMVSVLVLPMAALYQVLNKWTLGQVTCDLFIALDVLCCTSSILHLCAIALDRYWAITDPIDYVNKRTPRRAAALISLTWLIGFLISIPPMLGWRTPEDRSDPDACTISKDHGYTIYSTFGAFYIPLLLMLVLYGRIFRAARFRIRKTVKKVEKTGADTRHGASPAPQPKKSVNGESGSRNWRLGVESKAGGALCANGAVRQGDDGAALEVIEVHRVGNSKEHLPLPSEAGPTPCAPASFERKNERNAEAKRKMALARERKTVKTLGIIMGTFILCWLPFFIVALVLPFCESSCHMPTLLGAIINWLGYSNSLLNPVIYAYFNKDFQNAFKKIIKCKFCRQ

| Structure (SMILES) | inhibition [%] |
| --- | --- |
| CNC(=O)[C@@]12C[C@@H]1[C@@H](n1cnc3c(N(C)C)nc(Cl)nc31)[C@H](O)[C@@H]2O | < 50 |

Each compound was assayed against Adenosine receptor A2a (Homo sapiens, UniProt P29274) (assay: Displacement of [3 H]2-[p-(2-carboxyethyl)phenyl-ethylamino]-5'-N-ethylcarboxamidoadenosine from recombinant human adenosine receptor A2A expressed in HEK293 cell membranes at 10 uM after 60 mins by liquid scintillation counting method relative to control). Details: not given.
Chain of Adenosine receptor A2a (P29274 whole entry): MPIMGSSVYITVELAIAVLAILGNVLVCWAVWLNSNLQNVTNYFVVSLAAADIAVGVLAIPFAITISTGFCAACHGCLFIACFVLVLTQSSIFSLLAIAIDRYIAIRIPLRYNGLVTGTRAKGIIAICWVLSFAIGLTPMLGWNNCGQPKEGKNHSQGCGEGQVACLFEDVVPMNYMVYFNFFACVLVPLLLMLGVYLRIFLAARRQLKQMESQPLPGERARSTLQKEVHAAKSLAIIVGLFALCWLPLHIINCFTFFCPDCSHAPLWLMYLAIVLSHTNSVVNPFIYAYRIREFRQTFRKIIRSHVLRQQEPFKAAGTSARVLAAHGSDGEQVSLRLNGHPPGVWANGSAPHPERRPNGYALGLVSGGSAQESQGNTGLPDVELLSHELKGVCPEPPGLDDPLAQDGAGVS

| Structure (SMILES) | inhibition [%] |
| --- | --- |
| CNC(=O)[C@@]12C[C@@H]1[C@@H](n1cnc3c(N(C)C)nc(Cl)nc31)[C@H](O)[C@@H]2O | < 10 |

What follows are compounds tested against 5-hydroxytryptamine receptor 4 (Homo sapiens) (UniProt Q13639) (assay: Displacement of [3H]GR113808 from human 5-HT4 receptor at 10 uM incubated for 90 mins under dark condition by microbeta scintillation counting method relative to control). Details: not given.
Chain of 5-hydroxytryptamine receptor 4 (Homo sapiens) (Q13639 whole entry): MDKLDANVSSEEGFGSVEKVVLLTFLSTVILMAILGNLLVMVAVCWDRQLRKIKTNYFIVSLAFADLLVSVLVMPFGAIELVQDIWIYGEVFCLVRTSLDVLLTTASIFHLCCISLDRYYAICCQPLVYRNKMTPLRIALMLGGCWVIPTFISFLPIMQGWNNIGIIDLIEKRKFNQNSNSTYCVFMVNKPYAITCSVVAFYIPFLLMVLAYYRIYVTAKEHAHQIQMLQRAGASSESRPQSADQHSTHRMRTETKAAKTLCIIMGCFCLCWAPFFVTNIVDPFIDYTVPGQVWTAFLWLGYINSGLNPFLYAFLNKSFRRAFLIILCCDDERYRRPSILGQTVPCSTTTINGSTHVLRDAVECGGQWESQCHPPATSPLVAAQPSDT

| Structure (SMILES) | inhibition [%] |
| --- | --- |
| CNC(=O)[C@@]12C[C@@H]1[C@@H](n1cnc3c(N(C)C)nc(Cl)nc31)[C@H](O)[C@@H]2O | < 50 |

The compounds below were run against T8, 5-hydroxytryptamine receptor 2C (Homo sapiens, UniProt P28335) (assay: Displacement of [3H]mesulergine from human 5-HT2CR expressed in Flp-In HEK cell membranes incubated for 90 mins under dark condition by microbeta scintillation counting method). Details: not given.
T8 sequence (P28335 whole entry): T4 sequence (whole entry)
Parameters: species or system HEK293

| Structure (SMILES) | Ki [µM] |
| --- | --- |
| CNC(=O)[C@@]12C[C@@H]1[C@@H](n1cnc3c(N(C)C)nc(Cl)nc31)[C@H](O)[C@@H]2O | 4.3 |
